Assay results reported in patent publication US20240417778A1, “Methods for Nucleic Acid Cleavage” (priority 2021, published 2024).
Entries after “also recorded” stand apart in the source; their conditions may differ.

Columns and labels:
[1] = tested on: RNA 69-er with a sequence that corresponds to the coronaviral pseudoknot; type: biochemical; details: 1 mM, 3 h incubation, 37° C.
[2] = tested on: RNA extracted from SARS-CoV-2; type: biochemical; details: 100 μM, 2 h, 37° C.
SARS-CoV-2 [3] = experiment: Drug assay of SARS-CoV-2 replication on Vero CCL-81 cells (PCR); type: cell-based; details: Vero CCL-81, MOI 0.05, 24 h, added 1 h before or 1 h after infection
SARS-CoV-2 [4] = type: cell-based; details: 6 μM for 24 h, added before or after infection, vs vehicle control
SARS-CoV-2 [5] = experiment: Virucidal activity on cell free virions; details: 6 μM, 1 h at 37° C., 1000 PFU, plaque assay
SARS-CoV-2 [6] = type: in vivo, K18-hACE2 mice; details: 10 mg/kg intranasally 1 hour pre- and 3 hours post-infection, day 5, plaque assay, vs vehicle
[7] = tested on: oligomer corresponding to the coronaviral pseudoknot; details: shape of MST binding curve
[8] = target: perturbed pseudoknot oligonucleotide; experiment: Micro-scale thermophoresis (MST), perturbed pseudoknot; type: binding; details: FAM-tagged oligonucleotide 50 nM, HEPES pH 7.4, 25.0° C.
[9] = tested on: frameshifting in SARS-CoV-2; details: Kelly et al., 2020; cited from earlier work
[10] = Solubility in aqueous media
[11] = tested on: G4 structure found on 5′UTR of NRAS mRNA; experiment: Fluorescence quenching assay; type: binding; details: Cy5-tagged oligonucleotide 50 nM, HEPES pH 7.4, 25.0° C.
Description: To prepare oligonucleotides for binding studies, oligonucleotides were dissolved at an appropriate buffer to a final concentration of 100 nM, then incubated at 95° C. with shaking for 5 min. Samples were allowed to cool at room temperature for at least 1 h before further dilutions/treatments.
Cy5-tagged oligonucleotide corresponding to G4 structure found on 5′UTR of NRAS mRNA (final concentration 50 nM) were dissolved in 20 mM HEPES pH 7.4 buffer supplemented with KCl (100 mM) and MgCl2 (10 mM) and plated on a 96-well plate. Oligonucleotides were treated with various concentrations of PDS family ligands as indicated, ranging from 5 nM to 10 μM, or a water vehicle control, followed by 30 minute incubation at 4° C. Fluorescence corresponding to Cy5 fluorophore was then measured for each oligonucleotide-small molecule/vehicle control combination using a plate reader (BMG CLARIOstar) at 25.0° C. […] Fluorescence was normalised to a vehicle control and binding curves for each molecule were obtained via a sigmoidal fit by setting the Hill Slope coefficient to 1.
PDS and its derivatives were incubated with a Cy5-functionalised oligomer corresponding to a G-quadruplex in NRAS 5′UTR, a well-established G4 model. As fluorescence quenching is proximity-induced, the signal corresponding to Cy5 is quenched upon PDS binding. […]

pseudoknot = details: relative to MTDB (Park et al., 2011); cited from earlier work
E. coli ribosome = experiment: In vitro degradation of E. coli ribozyme (agarose gel); type: biochemical; details: 15 mM to 0.47 mM, 18 hours, 200 μM ribozyme
Description: The degradation activity was measured in an in vitro assay, targeting the E. coli ribosome. […] Evaluation was made by agarose gel analysis.

## CCOC(=O)c1ccccc1NC(=O)N1CCCN(Cc2csc(C)n2)CC1 [MTDB]
[1]
  degradation of RNA pseudoknot: no degradation
[2]
  degradation of native SARS-CoV-2 RNA on agarose gel: do not
SARS-CoV-2 [3]
  antiviral effect (viral replication, E gene and pseudoknot region RNA): did not exhibit an antiviral effect; also recorded: did not inhibit viral replication
SARS-CoV-2 [4]
  number of viral plaques: only showed decreased number of viral plaques when added before infection
SARS-CoV-2 [5]
  virucidal effect: no virucidal effect was observed; also recorded: no virucidal effect on cell free virions
SARS-CoV-2 [6]
  lung viral load: No differences in lung viral load
[7]
  concentration with noticeable binding: ≥ 187.5 µM
[8]
  KD: No appreciable binding was observed
[9]
  frameshifting: known to disrupt frameshifting in SARS-CoV-2
[10]
  solubility: not soluble enough for KD determination using MST; also recorded: limited solubility

## NCCOc1cc(C(=O)Nc2cc(OCCN)c3ccccc3n2)nc(C(=O)Nc2cc(OCCN)c3ccccc3n2)c1 [PDS, Pyridostatin]
[11]
  EC50: 0.051 µM

## CCOC(=O)c1ccccc1NC(=O)N1CCCN(Cc2ccsc2)CC1 [TDB]
pseudoknot
  binding affinity towards the pseudoknot: lower binding affinity towards the pseudoknot

## O=C(N[C@H](CO)[C@H](O)c1ccc([N+](=O)[O-])cc1)C(Cl)Cl [chloramphenicol, Chloramphenicol]
E. coli ribosome
  ribosome degradation: no degradation

## chloramphenicol-2PEG-imidazole degrader [18b]
E. coli ribosome
  ribosome degradation: ribosome degradation could be observed at a concentration of 15 mM
E. coli ribosome; listed as diethylene glycol linker
  ribosome degradation: degradation visible at 15 mM concentration

## chloramphenicol-6PEG-imidazole degrader [18a]
E. coli ribosome
  ribosome degradation: no degradation visible

## chloramphenicol-ethyl-imidazole degrader [18c]
E. coli ribosome
  ribosome degradation: no degradation visible
